Assay results reported in publication PMC11995216, “End-to-End Backbone Cyclization Enhances Passive Permeability of bRo5 Oligomeric Depsipeptides with Nonlinear Size Dependence” (ACS Medicinal Chemistry Letters, 2025).
Values joined by “and” are separate entries in the source; they are usually repeats but may differ in a detail not shown here. Identical values can stand only once. Like-named read-outs stand apart in the source and are kept apart here. Values belong to the compound of their own block, whether it stands above or below them. Starred links: 1 amine or outer side, 2 acyl side, 3 side chain; linkers in the order of their positions; H or OH if unused. Non-standard residues stand in square brackets, D forms with d. Residues, ends and D or L forms follow the SMILES beside them. *: point of attachment. X1 = CCCCC[C@H](O[*:1])C(=O)[*:2]; Ahp(2) = CCCCC[C@H](N)C(=O)O; dNMeA = CN[C@H](C)C(=O)O; OBn = c1ccc(CO*)cc1

Key:
[1] = in vitro; details: PAMPA, Papp
[2] = system: PAMPA
[3] = system: PAMPA; details: calculated using Supplement Equation 1, UV detection
[4] = PAMPA, 500 uM
[5] = system: PAMPA; details: initial concentration 500 uM, UV detection
[6] = system: PAMPA; details: initial concentration 500 uM
[7] = system: PAMPA; details: UV detection
[8] = calculated using Supplement Equation 1, UV detection
[9] = initial concentration 500 uM, UV detection
[10] = initial concentration 500 uM, UV detection; remark: listed apart in the source
[11] = UV detection

Papp at 500 uM [1]: 5.05 ± 0.33 ×10⁻⁶ cm/s | Papp at 500 uM ([1]; Ave): 4.78 ×10⁻⁶ cm/s | Papp ([2]; Papp (x 10^-6 cm/s) – ELSD Detection / [row 1], ELSD Detection): 4.36 ×10⁻⁶ cm/s | Papp ([2]; Papp (x 10^-6 cm/s) – ELSD Detection / [row 2], ELSD Detection): 4.48 ×10⁻⁶ cm/s | Papp ([2]; Papp (x 10^-6 cm/s) – ELSD Detection / [row 3], ELSD Detection): 4.72 ×10⁻⁶ cm/s | Papp ([2]; Papp (x 10^-6 cm/s) – ELSD Detection / [row 4], ELSD Detection): 4.83 ×10⁻⁶ cm/s | Papp ([2]; Papp (x 10^-6 cm/s) – ELSD Detection / [row 5], ELSD Detection): 4.34 ×10⁻⁶ cm/s | Papp ([2]; Papp (x 10^-6 cm/s) – ELSD Detection / [row 6], ELSD Detection): 4.86 ×10⁻⁶ cm/s | Papp ([2]; Papp (x 10^-6 cm/s) – ELSD Detection / [row 7], ELSD Detection): 4.88 ×10⁻⁶ cm/s | Papp ([2]; Papp (x 10^-6 cm/s) – ELSD Detection / [row 8], ELSD Detection): 5.23 ×10⁻⁶ cm/s | Papp ([2]; Papp (x 10^-6 cm/s) – ELSD Detection / [row 9], ELSD Detection): 5.23 ×10⁻⁶ cm/s | Papp ([2]; Papp (x 10^-6 cm/s) – ELSD Detection / [row 10], ELSD Detection): 4.89 ×10⁻⁶ cm/s | Papp ([2]; Papp (x 10^-6 cm/s) – UV Detection / [row 1], UV Detection): 4.63 ×10⁻⁶ cm/s | Papp ([2]; Papp (x 10^-6 cm/s) – UV Detection / [row 2], UV Detection): 4.93 ×10⁻⁶ cm/s | Papp ([2]; Papp (x 10^-6 cm/s) – UV Detection / [row 3], UV Detection): 5.16 ×10⁻⁶ cm/s | Papp ([2]; Papp (x 10^-6 cm/s) – UV Detection / [row 4], UV Detection): 5.2 ×10⁻⁶ cm/s | Papp ([2]; Papp (x 10^-6 cm/s) – UV Detection / [row 6], UV Detection): 4.49 ×10⁻⁶ cm/s | Papp ([2]; Papp (x 10^-6 cm/s) – UV Detection / [row 7], UV Detection): 5.18 ×10⁻⁶ cm/s | Papp ([2]; Papp (x 10^-6 cm/s) – UV Detection / [row 8], UV Detection): 5.55 ×10⁻⁶ cm/s | Papp ([2]; Papp (x 10^-6 cm/s) – UV Detection / [row 9], UV Detection): 5.44 ×10⁻⁶ cm/s | Papp ([2]; Papp (x 10^-6 cm/s) – UV Detection / [row 10], UV Detection): 4.87 ×10⁻⁶ cm/s | %T ([3]; Well 1 / %T, Well 1): 0.56% and 0.55% | %T ([3]; Well 2 / %T, Well 2): 0.58% and 0.6% | %T ([3]; Well 3 / %T, Well 3): 0.6% and 0.62% | %T ([3]; Well 4 / %T, Well 4): 0.6% and 0.61% | %T ([3]; Well 5 / %T, Well 5): 0.59% and 0.57% | LogPapp [4]: -5.30 ± 0.03 | Δ % diffusion [4]: ↑5% | % recovery ([7]; Well 1 / %R, Well 1): 90% | % recovery ([7]; Well 2 / %R, Well 2): 90% and 92% | % recovery ([7]; Well 3 / %R, Well 3): 93% and 90% | % recovery ([7]; Well 4 / %R, Well 4): 92% | % recovery ([7]; Well 5 / %R, Well 5): 88% and 89%
SMILES: CCCCC[C@@H]1OC(=O)[C@@H](C)N(C)C(=O)[C@H](CCCCC)OC(=O)[C@@H](C)N(C)C1=O [Compound C1.2]
donor concentration after incubation ([5]; Well 1 / [donor], Well 1): 356 µM | donor concentration after incubation ([5]; Well 2 / [donor], Well 2): 347 µM and 350 µM | donor concentration after incubation ([5]; Well 3 / [donor], Well 3): 356 µM and 338 µM | donor concentration after incubation ([5]; Well 4 / [donor], Well 4): 346 µM | donor concentration after incubation ([5]; Well 5 / [donor], Well 5): 339 µM and 346 µM | Acceptor Concentration ([6]; Acceptor Concentration (uM) – ELSD Detection / [row 1], ELSD Detection): 94.8 µM | Acceptor Concentration ([6]; Acceptor Concentration (uM) – ELSD Detection / [row 2], ELSD Detection): 98.9 µM | Acceptor Concentration ([6]; Acceptor Concentration (uM) – ELSD Detection / [row 3], ELSD Detection): 102 µM | Acceptor Concentration ([6]; Acceptor Concentration (uM) – ELSD Detection / [row 4], ELSD Detection): 107 µM | Acceptor Concentration ([6]; Acceptor Concentration (uM) – ELSD Detection / [row 5], ELSD Detection): 98.1 µM | Acceptor Concentration ([6]; Acceptor Concentration (uM) – ELSD Detection / [row 6], ELSD Detection): 113 µM | Acceptor Concentration ([6]; Acceptor Concentration (uM) – ELSD Detection / [row 7], ELSD Detection): 118 µM | Acceptor Concentration ([6]; Acceptor Concentration (uM) – ELSD Detection / [row 8], ELSD Detection): 122 µM | Acceptor Concentration ([6]; Acceptor Concentration (uM) – ELSD Detection / [row 9], ELSD Detection): 113 µM | Acceptor Concentration ([6]; Acceptor Concentration (uM) – ELSD Detection / [row 10], ELSD Detection): 109 µM | Acceptor Concentration ([6]; Acceptor Concentration (uM) – UV Detection / [row 1], UV Detection): 98.5 µM | Acceptor Concentration ([6]; Acceptor Concentration (uM) – UV Detection / [row 2], UV Detection): 103 µM | Acceptor Concentration ([6]; Acceptor Concentration (uM) – UV Detection / [row 3], UV Detection): 111 µM | Acceptor Concentration ([6]; Acceptor Concentration (uM) – UV Detection / [row 4], UV Detection): 108 µM | Acceptor Concentration ([6]; Acceptor Concentration (uM) – UV Detection / [row 5], UV Detection): 103 µM | Acceptor Concentration ([6]; Acceptor Concentration (uM) – UV Detection / [row 6], UV Detection): 95 µM | Acceptor Concentration ([6]; Acceptor Concentration (uM) – UV Detection / [row 7], UV Detection): 109 µM | Acceptor Concentration ([6]; Acceptor Concentration (uM) – UV Detection / [row 8], UV Detection): 114 µM | Acceptor Concentration ([6]; Acceptor Concentration (uM) – UV Detection / [row 9], UV Detection): 114 µM

%T ([8]; Well 1 / %T, Well 1): 0.52% and 0.53% | %T ([8]; Well 2 / %T, Well 2): 0.54% | %T ([8]; Well 3 / %T, Well 3): 0.53% and 0.5% | %T ([8]; Well 4 / %T, Well 4): 0.5% and 0.52% | %T ([8]; Well 5 / %T, Well 5): 0.53% and 0.52% | % recovery ([11]; Well 1 / %R, Well 1): 91% and 92% | % recovery ([11]; Well 2 / %R, Well 2): 87% and 92% | % recovery ([11]; Well 3 / %R, Well 3): 90% | % recovery ([11]; Well 4 / %R, Well 4): 88% and 86% | % recovery ([11]; Well 5 / %R, Well 5): 87% and 88%
SMILES: CCCCC[C@H](NC(=O)[C@@H](C)N(C)C(=O)[C@H](CCCCC)NC(=O)[C@@H](C)N(C)C(=O)[C@H](CCCCC)NC(=O)[C@@H](C)N(C)C(=O)[C@H](CCCCC)OC(=O)[C@@H](C)NC)C(=O)OCc1ccccc1 (H-[dNMeA][X1][dNMeA][Ahp(2)][dNMeA][Ahp(2)][dNMeA][Ahp(2)]-OBn)
acceptor concentration after incubation ([9]; Well 1 / [acc], Well 1): 56 µM and 61.7 µM | acceptor concentration after incubation ([9]; Well 2 / [acc], Well 2): 58.6 µM and 63.1 µM | acceptor concentration after incubation ([9]; Well 3 / [acc], Well 3): 59.5 µM and 60.4 µM | acceptor concentration after incubation ([9]; Well 4 / [acc], Well 4): 58.3 µM and 60.3 µM | acceptor concentration after incubation ([9]; Well 5 / [acc], Well 5): 60.6 µM and 61.4 µM | donor concentration after incubation ([10]; Well 1 / [donor], Well 1): 396 µM and 397 µM | donor concentration after incubation ([10]; Well 2 / [donor], Well 2): 375 µM and 395 µM | donor concentration after incubation ([10]; Well 3 / [donor], Well 3): 387 µM and 374 µM | donor concentration after incubation ([10]; Well 4 / [donor], Well 4): 382 µM and 368 µM | donor concentration after incubation ([10]; Well 5 / [donor], Well 5): 376 µM and 377 µM
